Here are results for two compounds from patent publication US20100061994A1, “MEDICAL USES OF 39-DESMETHOXYRAPAMYCIN AND ANALOGUES THEREOF” (priority 2005, published 2010).

Like-named read-outs stand apart in the source and are kept apart here.

The test system of data set [1] is U87-MG. In words: Glioma orthotopically xenografted in nude mice, MRI tumour volume. It counts as in vivo. The note with it: 3 mg/kg/inj IV, (Q1D×3)×5W, MRI at D23, mean of 4 values. As for the experimental part: The test compound was dissolved in ethanol (0.027 mL/mg compound) and vortexed for 20 min until the solution was clear. Ethanolic solutions were aliquoted as appropriate and stored at −20° C.
The test substance and control vehicle were administered intravenously (IV, bolus) by injection into the caudal vein of the test mice. An injection volume of 10 mL/kg was used, based on the most recent body weight of mice.
The cell line used for the study was U87-MG, a glioblastoma cell line initiated by J. Ponten from a […] glioblastoma from a person (Poten et al., 1968).
Mice were stereotaxically injected with U87-MG cells at D, 24 to 48 hours after a whole body irradiation with a γ-source (2.5 Gy, Co^60, INRA BRETENIERE, Dijon). For the stereotaxic injection of tumour cells, mice were anesthetised by an intraperitoneal injection of Ketamine 100 mg/kg (Ketamine500®, Ref 043KET204, Centravet, France) and Xylazine 5 mg/kg (Rompun®, Ref 002ROM001, Centravet, France) in 0.9% NaCl solution at 10 mL/kg/inj. […]
After tripilot acquisitions, a turboRare T2 weighted sequence was performed. […] The tumour volume was determined by manually drawing a region of interest (ROI) around the tumour in each slice and by summation of all the surfaces.
Additionally the MRI analysis was used to calculate the average calculated tumour volume per treatment group, the results are summarised in Table 13 below. […]

Data set [2] can be described thus: Pharmacokinetic analysis Protocol 2 (blood and brain). It counts as in vivo, female Balb C mice. As to conditions: female, Balb C, mouse; for Kp: brain / whole blood; for AUC: whole blood, blood, 0-24 h. The method, then:
To prepare the dosing solution, 5 mg test compound was dissolved in 100 μL ethanol resulting in a compound solution of 50 mg/mL. The solution was then diluted to 2 mg/mL by adding approximately 2.4 mL 0.15 M NaCl (0.9% w/v saline), 5% v/v Tween 20 and 5% v/v PEG 400 (final ethanol conc. 4% v/v).
A single dose of 10 mg/kg p.o. or 2 mg/kg i.v. of test compound at a concentration of 10 mg/kg p.o or 2 mg/kg i.v. was administered to groups of 3 female Balb C mice. At 5 min, 15 min, 60 min, 4 h, 8 h and 24 h, groups were sacrificed and whole blood samples of approximately 0.2 mL were retrieved in EDTA to give a final concentration of 0.5 mM, additionally the brains were removed.

Regarding `COC1CC2CCC(C)C(O)(O2)C(=O)C(=O)N2CCCCC2C(=O)OC(C(C)CC2CCC(O)CC2)CC(=O)C(C)C=C(C)C(O)C(OC)C(=O)C(C)CC(C)C=CC=CC=C1C` (centres unmarked) [39-desmethoxyrapamycin], the “average calculated tumour volume, Day 23 (mm^3)” value in data set [1] was 1.25 mm^3.

In the case of `CO[C@H]1C[C@@H]2CC[C@@H](C)[C@@](O)(O2)C(=O)C(=O)N2CCCC[C@H]2C(=O)O[C@H]([C@H](C)C[C@@H]2CC[C@@H](O)[C@H](OC)C2)CC(=O)[C@H](C)/C=C(\C)[C@@H](O)[C@@H](OC)C(=O)[C@H](C)C[C@H](C)/C=C/C=C/C=C/1C` [Rapamycin], the Kp in data set [2] (intravenous, PK protocol 2, 2 mg/kg i.v., read-out: Ri i.v. (partition coefficient)) is 0.255; in data set [2] (oral, PK protocol 2, 10 mg/kg p.o., read-out: Ri p.o. (partition coefficient)) it was 0.066. Also, the AUC in data set [2] (iv, PK protocol 2, 2 mg/kg i.v., read-out: AUCBLOOD i.v.) is 24900 ng·h/mL; in data set [2] (po, PK protocol 2, 10 mg/kg p.o., read-out: AUCBLOOD p.o.), 25200 ng·h/mL.
